Experimental findings from ChEMBL document CHEMBL3632602, “Selenoacyclovir and Selenoganciclovir: Discovery of a New Template for Antiviral Agents” (J Med Chem, 2015) are described below.

The subject of data set [1] is Human alphaherpesvirus 3. Kind of data set: Antiviral activity against Varicella-zoster virus Ellen VR-1367 infected in African green monkey Vero cells after 3 days by MTT assay. It is filed as functional, organism-based. The note with it: Human alphaherpesvirus 3, Ellen VR-1367, Vero, 72 h.
The test system of data set [2] is Human alphaherpesvirus 1. Put plainly: Antiviral activity against Herpes simplex virus 1 strain F VR-733 infected in African green monkey Vero cells after 3 days by MTT assay. The conditions noted are these: Human alphaherpesvirus 1, Strain F ATCC VR 733, Vero, 72 h. It is filed as functional, organism-based.
Data set [3] is described as follows: Solubility of compound in double-deionized water after 3 days by LC-MS/MS analysis. The class given is physicochemical.
Data set [4] concerns Human betaherpesvirus 5. Kind of data set: Antiviral activity against Human cytomegalovirus Davis VR-807 infected in […] after 3 days by MTT assay. The note with it: Human betaherpesvirus 5, Davis VR-807, 72 h. It is filed as functional, organism-based.
The nature of data set [5]: Cytotoxicity against human HEL299 cells after 3 days by MTT assay. The class given is cell-based, HEL 299.
Data set [6] relates to Human alphaherpesvirus 2. Put plainly: Antiviral activity against Herpes simplex virus 2 strain MS VR-540 infected in African green monkey Vero cells after 3 days by MTT assay. It is filed as functional, organism-based. The note with it: Human alphaherpesvirus 2, MS VR-540, Vero, 72 h.

Structures are written as SMILES. In brackets after ≈: the same amount, converted by molar mass.

On to `Nc1nc2c(ncn2COC(CO)CO)c(=O)[nH]1` [GANCICLOVIR], for which the EC50 was determined as 11.1 µM in data set [1], 0.9 µM in data set [2], 2.14 µM in data set [4] and 1.4 µM in data set [6]. In data set [3], this compound gave a solubility at 72 h of 4960 µg/mL (≈ 19.4 mM). In data set [5], this compound gave a CC50 at 72 h greater than 100 µM.

On to `Nc1nc2c(ncn2COCCO)c(=O)[nH]1` [ACYCLOVIR], for which the EC50 in data set [1] amounted to 6.4 µM; in data set [2], 0.66 µM; in data set [4], 18.9 µM; in data set [6], 1.02 µM. The concentration in solution in data set [3] (solubility at 72 h) was 3920 µg/mL (≈ 17.4 mM). Further, in data set [5], the CC50 at 72 h was greater than 100 µM.

For the compound `Nc1nc2c(ncn2C[Se]CCO)c(=O)[nH]1`, the EC50 in data set [1] was greater than 100 µM; in data set [2] it was 1.47 µM; in data set [4] it was greater than 100 µM; in data set [6] it was 6.34 µM. In data set [3], this compound had a solubility at 72 h of 1060 µg/mL (≈ 3.68 mM). Besides, the CC50 at 72 h in data set [5] was greater than 100 µM.

On to `Nc1nc2c(ncn2C[Se]C(CO)CO)c(=O)[nH]1`, for which the EC50 in data set [1] is greater than 100 µM; in data set [2], greater than 100 µM; in data set [4] it was 53.1 µM; in data set [6] it was greater than 100 µM. The compound further showed a solubility at 72 h in data set [3] of 2230 µg/mL (≈ 7.01 mM). The compound also returned a CC50 at 72 h in data set [5] greater than 100 µM.
